# Laboratory results taken from EP0097071A1, “Benzhydryl sulfinylacetamide derivatives and their therapeutical use” (LABORATOIRE L. LAFON Société anonyme dite:, priority 1982, dated 1983).
# Key:
# souris mâle [1] = assay: Pentobarbital-induced sleep duration; format: in vivo
# Excerpt: Les composés selon l'invention se distinguent du benzhydrylsulfinylacétamide (CRL 40476) précité par une différence d'action vis-à-vis du sommeil barbiturique. […]. Cette différence d'action qui est intéressante sur le plan thérapeutique est illustrée par le tableau IV
# [2] = cited from earlier work
# SNC = assay: Essential activity on the CNS (Tableau I and conclusions of the neuropsychopharmacological study); format: in vivo; conditions: in vivo
# Excerpt: Dans le tableau I ci-après, on a consigné un certain nombre de composés selon la formule I de façon nullement limitative, en mentionnant l'activité essentielle sur le SNC.
# Les composés de formule I agissent tous sur le SNC. Les produits des exemples 1-3 et 7-8 sont des agents stimulants, en revanche les produits des exemples 4-6 sont des agents sédatifs.
# souris [3] = assay: Traction test; format: in vivo; conditions: 0,5 h after administration, dose not stated
# Procedure: (§1) On a résumé ci-après les résultats des essais pharmacologiques qui ont été entrepris avec les produits selon la présente addition. Dans ces essais, les produits de formule I à étudier ont été administrés par voie intrapéritonéale, en suspension dans une solution aqueuse de gomme arabique, sous un volume de 20 ml/kg chez la souris mâle et sous un volume de 5 ml/kg chez le rat mâle.
# (§2) Les essais sont effectués sur des lots de 10 souris (par dose) 0,5 h après l'administration du CRL 40933.
# souris [4] = assay: Interaction with reserpine; format: in vivo; conditions: 128 mg/kg i.p.
# Procedure: as §1
# Quatre heures après l'injection intrapéritonéale de 2,5 mg/kg de réserpine, des lots de 6 souris reçoivent le CRL 40933.
# souris [5] = assay: Interaction with oxotremorine; format: in vivo
# Procedure: as §1
# Le CRL 40933 est administré à des lots de 6 souris 0,5 h avant l'injection intrapéritonéale de 0,5 mg/kg d'oxotrémorine.
# souris [6] = assay: Interaction with apomorphine, mouse; format: in vivo
# Procedure: as §1
# Des lots de 6 souris par dose reçoivent le CRL 40933 0,5 h avant l'injection sous-cutanée d'apomorphine administrée à la dose de 1 ou 16 mg/kg.
# rats mâles = assay: Global behaviour and reactivities, rat; format: in vivo; conditions: 64 mg/kg i.p.
# Procedure: as §1
# (§3) Pour apprécier le comportement global et les réactivités, des lots de six animaux (souris mâles ou rats mâles) ont été observés avant administration de chaque produit, puis 15 min, 30 min, 1 h, 2 h, 3 h et 24 h après administration de chaque produit. Les résultats sont consignés dans le tableau III ci-après, […]
# rats = assay: Interaction with amphetamine (stereotypies); format: in vivo; conditions: rat; amphétamine 2 mg/kg i.p.; doses used, not stated
# Procedure: as §1
# L'amphétamine (2 mg/kg)est injectée par voie intrapéritonéale à des lots de 6 rats, 30 min après l'administration de CRL 40933.
# souris [7] = assay: Motility reduced by habituation to the enclosure; format: in vivo
# Procedure: as §1
# Après 18 h de séjour dans les actimètres, les souris (6 par dose, 12 témoins) reçoivent le CRL 40933. Elles sont aussitôt replacées dans leurs enceintes respectives et, 30 min plus tard, on enregistre leur motilité pendant 30 min.
# souris [8] = assay: Behavioural despair (forced immersion); format: in vivo; conditions: 32 mg/kg et 128 mg/kg i.p.
# Procedure: as §1
# Une demi-heure après avoir reçu le CRL 40933, des lots de 10 souris par dose sont placés dans un espace restreint rempli d'eau sur une hauteur de 6 cm; on note la durée d'immobilité entre la 2e et la 6e minute suivant l'immersion.
# souris [9] = assay: Spontaneous motility (actimeter); format: in vivo
# Procedure: as §1
# Une demi-heure, après avoir reçu le CRL 40933, les souris (6 par dose, 12 témoins) sont placées en actimètre où leur motilité est enregistrée pendant 30 min.
# souris mâle [10] = assay: Toxicity, DL-0; format: in vivo; conditions: i.p.
# Procedure: as §1
# La toxicité a été étudiée chez la souris mâle. Les résultats relatifs à la DL-0 (dose minimale non mortelle) sont donnés dans le tableau II ci-après.
# Solubility = conditions: for solubility: water
# souris [11] = assay: Motility reduced by hypoxic aggression (acute hypobaric anoxia); format: in vivo
# Procedure: as §1
# Une demi-heure après avoir reçu le CRL 40933, les souris (10 par dose, 20 témoins) sont soumises à une anoxie hypobare aiguë [dépression de 600 mm Hg (soit environ 8 x 10^4 pascals) en 90 s, puis détente de 45 s], puis elles sont placées en actimètre où leur motilité est enregistrée pendant 10 min.
# rat = assay: Interaction with apomorphine, rat; format: in vivo; conditions: apomorphine 0,5 mg/kg s.c., dose not stated
# Procedure: as §1
# Le CRL 40933 est administré à des lots de 6 rats 0,5 h avant l'injection sous-cutanée de 0,5 mg/kg d'apomorphine.
# souris [12] = assay: Four plates test; format: in vivo; conditions: 0,5 h after administration, dose not stated
# Procedure: as §1, §2
# souris [13] = assay: Interaction with barbital (sleep); format: in vivo
# Procedure: as §1
# Une demi-heure après l'administration de CRL 40933, des lots de 10 souris reçoivent une injection intrapéritonéale de 220 mg/kg de barbital.
# souris [14] = assay: Asphyxic anoxia (gallamine triethiodide); format: in vivo; conditions: dose not stated
# Procedure: as §1
# Des lots de 10 souris par dose reçoivent le CRL 40933 30 min avant l'administration intrapéritonéale de 32 mg/kg de triiodoéthylate de gallamine.
# souris mâles = assay: Global behaviour and reactivities, mouse; format: in vivo; conditions: souris
# Procedure: as §1, §3
# souris [15] = assay: Intergroup aggressiveness; format: in vivo; conditions: for agressivité intergroupes (nombre de combats): dose not stated
# Procedure: as §1
# Après avoir séjourné pendant 3 semaines dans chacune des moitiés d'une cage séparées par une cloison opaque, des groupes de 3 souris reçoivent le CRL 40933. 30 min plus tard, les deux groupes d'une même cage sont réunis par retrait de la cloison et on note le nombre de combats qui surviennent en 10 min.
# souris [16] = assay: Electroshock; format: in vivo; conditions: dose not stated
# Procedure: as §1, §2
# [17] = dose 128 mg/kg i.p., 0,5 h before pentobarbital
structure (smiles),measurement,setting,value
"NC(=O)C[S+]([O-])C(c1ccccc1)c1ccccc1 (stereo not drawn) [CRL 40476, benzhydrylsulfinylacétamide, reference compound]",Action sur la durée du sommeil induit par le pentobarbital (50 mg/kg i.p.) effet,"souris mâle [1]; dose de 8 à 256 mg/kg i.p., 0,5 h before pentobarbital",(b) (pas de modification significative de la durée du sommeil.)
same,durée du sommeil barbiturique induit par le pentobarbital,"souris mâle [1]; pentobarbital 50 mg/kg i.p. 0,5 h after i.p. test product, dose not stated",ne modifie pas
same,excitation avec hyperréactivité,[2]; in vivo,présence
same,potentialisation des effets de l'apomorphine et de l'amphétamine,[2]; in vivo,absence
same,stéréotypies,[2]; sauf à fortes doses,absence
same,Activité sur le SNC,SNC,stimulant
"CNC(=O)C[S+]([O-])C(c1ccccc1)c1ccccc1 (stereo not drawn) [Exemple 1, N-méthyl-benzhydrylsulfinylacétamide]",Action sur la durée du sommeil induit par le pentobarbital (50 mg/kg i.p.) effet,souris mâle [1]; [17],(a)
same,déficit moteur (traction),souris [3],ne provoque pas d'incapacité motrice majeure
same,hypothermie induite par la réserpine,souris [4],antagonise
same,ptôsis réserpinique,souris [4],sans modifier
same,action hypothermisante de l'oxotrémorine,souris [5]; 8 mg/kg à 128 mg/kg i.p.,s'oppose modérément
same,signes de stimulation cholinergique périphérique dus à l'oxotrémorine,souris [5]; dose not stated,laisse pratiquement inchangés
same,tremblements induits par l'oxotrémorine,souris [5]; dose not stated,ne modifie pas
same,hypothermie induite par l'apomorphine,souris [6]; 128 mg/kg i.p.,ne s'oppose pas
same,own effect on temperature,souris [6]; 128 mg/kg i.p.,hypothermisant
same,comportement de verticalisation et stéréotypies (apomorphine),souris [6]; dose not stated,ne modifie pas
same,Observations (comportement global et réactivités),rats mâles,mydriase pendant 3 h
same,Activité sur le SNC,SNC,stimulant
same,conclusion of the neuropsychopharmacological study: main type of CNS effect,SNC,composante excitante
same,stéréotypies amphétaminiques,rats,ne modifie pratiquement pas
same,activité motrice chez la souris habituée à son enceinte,"souris [7]; 8 mg/kg, 32 mg/kg et surtout 128 mg/kg i.p.",reprise d'activité motrice
same,durée d'immobilité de la souris placée en immersion forcée,souris [8],diminue nettement
same,motilité spontanée,souris [9]; 32 mg/kg et 128 mg/kg i.p.,augmentation modérée
same,DL-O,souris mâle [10],supérieure à 256 mg/kg
same,solubilité dans l'éther et l'acétate d'éthyle,Solubility,insoluble
same,"solubilité dans le méthanol, l'éthanol et l'acétoné",Solubility,soluble
same,solubility,Solubility,< 1000 µg/mL
same,récupération motrice après séjour bref dans une enceinte à pression réduite,souris [11]; 128 mg/kg i.p.,amélioration modérée (mais non significative)
same,stéréotypies induites par l'apomorphine,rat,laisse inchangées
same,nombre de passages punis,souris [12],n'entraîne pas d'augmentation
same,durée du sommeil barbiturique,souris [13]; 32 mg/kg i.p.,n'entraîne pas de modifications sensibles
same,nombre de souris endormies,souris [13]; 32 mg/kg i.p.,diminution nette
same,durée du sommeil barbiturique,souris [13]; 128 mg/kg i.p.,diminue nettement
same,délai d'apparition des convulsions et de la mort consécutives à une anoxie asphyxique,souris [14],ne modifie pas
same,Observations (comportement global et réactivités),souris mâles; 64 mg/kg i.p.,excitation
same,Observations (comportement global et réactivités),souris mâles; 128 mg/kg i.p.,"excitation - hypothermie (-1,5°C) pendant 0,5 h"
same,hypothermie,souris mâles; 128 mg/kg i.p.,"-1,5 °C"
same,Observations (comportement global et réactivités),souris mâles; 256 mg/kg i.p.,"dyspnée, excitation, démarche titu-bante"
same,mortalité,souris mâles; 256 mg/kg i.p.,pas de mortalité
same,agressivité intergroupes (nombre de combats),souris [15],ne modifie pas nettement
same,effets convulsivants de l'électrochoc,souris [16],ne s'oppose pas
"O=C(C[S+]([O-])C(c1ccccc1)c1ccccc1)N1CCCCC1 (stereo not drawn) [Exemple 5, N-(benzhydrylsulfinylacétyl)-pipéridine]",Action sur la durée du sommeil induit par le pentobarbital (50 mg/kg i.p.) effet,souris mâle [1]; [17],(a)
same,Activité sur le SNC,SNC,sédatif
same,conclusion of the neuropsychopharmacological study: main type of CNS effect,SNC,type sédatif
same,mobilité réduite (habituation à l'enceinte),"souris [7]; souris, dose not stated",n'agit pas nettement
same,motilité spontanée,"souris [9]; all doses used (8 mg/kg à 256 mg/kg), intensity increasing with dose",hypomotilité
same,DL-O,souris mâle [10],supérieure à 1024 mg/kg
same,solubility,Solubility,< 1000 µg/mL
same,mobilité réduite (agression hypoxique),souris [11]; dose not stated,n'agit pas nettement
same,agressivité intergroupes,souris [15]; 32 mg/kg i.p.,diminue de moitié
same,agressivité intergroupes (nombre de combats),souris [15],effet antiagressif
